Assay results: PubChem BioAssay AID1259407 (Chemical Carcinogenesis Research Information System (CCRIS), 2018)
Active and inactive are the calls of the source. No rule for the calls is given here.

Tested on: CCRIS mutagenicity, Ames/micronucleus/aberration tests
Assay: CCRIS mutagenicity studies
Conditions: Test System: AMES SALMONELLA TYPHIMURIUM

Measured: mutagenic call

CNCCS(=O)(=O)O
inactive: Strain/Indicator: TA98, Metabolic Activation: HAMSTER, LIVER, S-9, AROCLOR 1254 (10%), Method: PREINCUBATION inactive; negative | Strain/Indicator: TA98, Metabolic Activation: NONE, Method: PREINCUBATION inactive; negative | Strain/Indicator: TA98, Metabolic Activation: RAT, LIVER, S-9, AROCLOR 1254 (10%), Method: PREINCUBATION inactive; negative | Strain/Indicator: TA100, Metabolic Activation: HAMSTER, LIVER, S-9, AROCLOR 1254 (10%), Method: PREINCUBATION inactive; negative | Strain/Indicator: TA100, Metabolic Activation: NONE, Method: PREINCUBATION inactive; negative | Strain/Indicator: TA100, Metabolic Activation: RAT, LIVER, S-9, AROCLOR 1254 (10%), Method: PREINCUBATION inactive; negative | Strain/Indicator: TA1535, Metabolic Activation: HAMSTER, LIVER, S-9, AROCLOR 1254 (10%), Method: PREINCUBATION inactive; negative | Strain/Indicator: TA1535, Metabolic Activation: NONE, Method: PREINCUBATION inactive; negative | Strain/Indicator: TA1535, Metabolic Activation: RAT, LIVER, S-9, AROCLOR 1254 (10%), Method: PREINCUBATION inactive; negative | Strain/Indicator: TA1537, Metabolic Activation: HAMSTER, LIVER, S-9, AROCLOR 1254 (10%), Method: PREINCUBATION inactive; negative | Strain/Indicator: TA1537, Metabolic Activation: NONE, Method: PREINCUBATION inactive; negative | Strain/Indicator: TA1537, Metabolic Activation: RAT, LIVER, S-9, AROCLOR 1254 (10%), Method: PREINCUBATION inactive; negative

Cc1ccc(N=NN(C)C)cc1
inactive: Strain/Indicator: TA92, Metabolic Activation: MOUSE, LIVER, S-9, POLYCHLORINATED BIPHENYLS, Method: PREINCUBATION inactive; negative | Strain/Indicator: TA92, Metabolic Activation: MOUSE, LIVER, S-9, POLYCHLORINATED BIPHENYLS, Method: STANDARD PLATE inactive; negative | Strain/Indicator: TA92, Metabolic Activation: NONE, Method: STANDARD PLATE inactive; negative | Strain/Indicator: TA97, Metabolic Activation: MOUSE, LIVER, S-9, POLYCHLORINATED BIPHENYLS, Method: PREINCUBATION inactive; negative | Strain/Indicator: TA97, Metabolic Activation: MOUSE, LIVER, S-9, POLYCHLORINATED BIPHENYLS, Method: STANDARD PLATE inactive; negative | Strain/Indicator: TA98, Metabolic Activation: MOUSE, LIVER, S-9, POLYCHLORINATED BIPHENYLS, Method: PREINCUBATION inactive; negative | Strain/Indicator: TA100, Metabolic Activation: MOUSE, LIVER, S-9, POLYCHLORINATED BIPHENYLS, Method: PREINCUBATION inactive; negative | Strain/Indicator: TA100, Metabolic Activation: MOUSE, LIVER, S-9, POLYCHLORINATED BIPHENYLS, Method: STANDARD PLATE inactive; negative | Strain/Indicator: TA100, Metabolic Activation: NONE, Method: STANDARD PLATE inactive; negative | Strain/Indicator: TA1535, Metabolic Activation: MOUSE, LIVER, S-9, POLYCHLORINATED BIPHENYLS, Method: PREINCUBATION inactive; negative | Strain/Indicator: TA1535, Metabolic Activation: MOUSE, LIVER, S-9, POLYCHLORINATED BIPHENYLS, Method: STANDARD PLATE inactive; negative | Strain/Indicator: TA1535, Metabolic Activation: NONE, Method: STANDARD PLATE inactive; negative
active: Strain/Indicator: TA97, Metabolic Activation: NONE, Method: STANDARD PLATE active; positive | Strain/Indicator: TA98, Metabolic Activation: MOUSE, LIVER, S-9, POLYCHLORINATED BIPHENYLS, Method: STANDARD PLATE active; positive | Strain/Indicator: TA98, Metabolic Activation: NONE, Method: STANDARD PLATE active; positive | Strain/Indicator: TA1537, Metabolic Activation: MOUSE, LIVER, S-9, POLYCHLORINATED BIPHENYLS, Method: PREINCUBATION active; positive | Strain/Indicator: TA1537, Metabolic Activation: MOUSE, LIVER, S-9, POLYCHLORINATED BIPHENYLS, Method: STANDARD PLATE active; positive | Strain/Indicator: TA1537, Metabolic Activation: NONE, Method: STANDARD PLATE active; positive | Strain/Indicator: TA1538, Metabolic Activation: MOUSE, LIVER, S-9, POLYCHLORINATED BIPHENYLS, Method: PREINCUBATION active; positive | Strain/Indicator: TA1538, Metabolic Activation: MOUSE, LIVER, S-9, POLYCHLORINATED BIPHENYLS, Method: STANDARD PLATE active; positive | Strain/Indicator: TA1538, Metabolic Activation: NONE, Method: STANDARD PLATE active; positive
